# Columns and labels:
# barnyardgrass [1] = experiment: Test C preemergence; type: in vivo, Echinochloa crusgalli; details: for Barnyardgrass plant response rating: preemergence; for Plant response rating, Barnyardgrass: Preemergence
# In short: (§1)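 Soil-applied (pre) and foliar (post, 1–2 leaf, 2–10 cm) sprays; surfactant-containing non-phytotoxic solvent vehicle; loam/sand substrate. Readout: visual % control at 10 d, greenhouse, versus untreated.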
# sedge, umbrella = experiment: Test D flooded paddy test; type: in vivo, Cyperus difformis; details: 250 g ai/ha, applied to paddy water, visual rating after 13 to 14 days, scale 0 to 100 (0 no effect, 100 complete control)
# In short: (§2)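 Compounds go straight into paddy water over 2-leaf plants in pots flooded to 3 cm. Greenhouse holding lasts 13 to 14 days. Injury is scored by eye against controls from 0 (none) to 100 (complete control).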
# soybean [2] = experiment: Test C postemergence; type: in vivo, Glycine max; details: 10 days
# In short: as §1
# blackgrass [3] = experiment: Test C postemergence; type: in vivo, Alopecurus myosuroides; details: 10 days
# In short: as §1
# soybean [4] = experiment: Test C preemergence; type: in vivo, Glycine max; details: for Soybean plant response rating: preemergence; for Plant response rating, Soybean: Preemergence
# In short: as §1
# kochia [5] = experiment: Test C preemergence; type: in vivo, Bassia scoparia; details: for Kochia plant response rating: preemergence; for Plant response rating, Kochia: Preemergence
# In short: as §1
# green foxtail [6] = experiment: Test C postemergence; type: in vivo, Setaria viridis; details: 10 days
# In short: as §1
# ragweed [7] = experiment: Test C preemergence; type: in vivo, Ambrosia artemisiifolia; details: for Ragweed plant response rating: preemergence; for Plant response rating, Ragweed: Preemergence
# In short: as §1
# oat, wild [8] = experiment: Test C preemergence; type: in vivo, Avena fatua; details: for Oat, Wild plant response rating: preemergence; for Plant response rating, Oat, Wild: Preemergence
# In short: as §1
# barnyardgrass [9] = experiment: Test C postemergence; type: in vivo, Echinochloa crusgalli; details: 10 days
# In short: as §1
# ducksalad = experiment: Test D flooded paddy test; type: in vivo, Heteranthera limosa; details: 250 g ai/ha, applied to paddy water, visual rating after 13 to 14 days, scale 0 to 100 (0 no effect, 100 complete control)
# In short: as §2
# ragweed [10] = experiment: Test C postemergence; type: in vivo, Ambrosia artemisiifolia; details: 10 days
# In short: as §1
# pigweed, palmer [11] = experiment: Test C preemergence; type: in vivo, Amaranthus palmeri; details: for Pigweed, Palmer plant response rating: preemergence; for Plant response rating, Pigweed, Palmer: Preemergence
# In short: as §1
# rice = experiment: Test D flooded paddy test; type: in vivo, Oryza sativa; details: 250 g ai/ha, applied to paddy water, visual rating after 13 to 14 days, scale 0 to 100 (0 no effect, 100 complete control)
# In short: as §2
# corn [12] = experiment: Test C postemergence; type: in vivo, Zea mays; details: 10 days
# In short: as §1
# corn [13] = experiment: Test C preemergence; type: in vivo, Zea mays; details: for Corn plant response rating: preemergence; for Plant response rating, Corn: Preemergence
# In short: as §1
# blackgrass [14] = experiment: Test C preemergence; type: in vivo, Alopecurus myosuroides; details: for Blackgrass plant response rating: preemergence; for Plant response rating, Blackgrass: Preemergence
# In short: as §1
# ryegrass, Italian [15] = experiment: Test C preemergence; type: in vivo, Lolium multiflorum; details: for Ryegrass, Italian plant response rating: preemergence; for Plant response rating, Ryegrass, Italian: Preemergence
# In short: as §1
# green foxtail [16] = experiment: Test C preemergence; type: in vivo, Setaria viridis; details: for Foxtail, Green plant response rating: preemergence; for Plant response rating, Foxtail, Green: Preemergence
# In short: as §1
# oat, wild [17] = experiment: Test C postemergence; type: in vivo, Avena fatua; details: 10 days
# In short: as §1
# pigweed, palmer [18] = experiment: Test C postemergence; type: in vivo, Amaranthus palmeri; details: 10 days
# In short: as §1
# wheat [19] = experiment: Test C postemergence; type: in vivo, Triticum aestivum; details: 10 days
# In short: as §1
# galium = experiment: Test C postemergence; type: in vivo, Galium aparine; details: 10 days
# In short: as §1
# kochia [20] = experiment: Test C postemergence; type: in vivo, Bassia scoparia; details: 10 days
# In short: as §1
# wheat [21] = experiment: Test C preemergence; type: in vivo, Triticum aestivum; details: for Wheat plant response rating: preemergence; for Plant response rating, Wheat: Preemergence
# In short: as §1
# barnyardgrass [22] = experiment: Test D flooded paddy test; type: in vivo, Echinochloa crus-galli; details: 250 g ai/ha, applied to paddy water, visual rating after 13 to 14 days, scale 0 to 100 (0 no effect, 100 complete control)
# In short: as §2
# horseweed = experiment: Test C postemergence; type: in vivo, Erigeron canadensis; details: 10 days
# In short: as §1
# ryegrass, Italian [23] = experiment: Test C postemergence; type: in vivo, Lolium multiflorum; details: 10 days
# In short: as §1
# [24] = 500 g ai/ha, 0 to 100 scale (0 no effect, 100 complete control)
# [25] = 125 g ai/ha, 0 to 100 scale, 0 no effect, 100 complete control
# [26] = 500 g ai/ha, postemergence, 0 to 100 scale (0 no effect, 100 complete control)
# [27] = Postemergence, 125 g ai/ha, 0 to 100 scale (0 no effect, 100 complete control)
# [28] = 500 g ai/ha, visual rating after 10 days, 0 to 100 scale (0 no effect, 100 complete control)
# [29] = Test C, 125 g ai/ha, 0 to 100 scale (0 no effect, 100 complete control)
# [30] = 125 g ai/ha, postemergence, 0 to 100 scale, 0 no effect, 100 complete control
# [31] = Postemergence, 500 g ai/ha, visual 0 to 100 scale (0 no effect, 100 complete control)
smiles,measurement,setting,value
CCOC[C@H]1CN(C(=O)c2cc(-n3cnc(C(C)C)n3)ccc2OC)c2cccc(Cl)c2O1 [Compound 341],Barnyardgrass plant response rating,barnyardgrass [1]; [24],100
same,"Plant response rating, Barnyardgrass",barnyardgrass [1]; [25],90
same,"Plant response rating, Sedge, Umbrella (Flood)","sedge, umbrella",90
same,"Plant response rating, Soybean",soybean [2]; [26],100
same,"Plant response rating, Soybean",soybean [2]; [27],100
same,"Plant response rating, Blackgrass",blackgrass [3]; [26],50
same,"Plant response rating, Blackgrass",blackgrass [3]; [27],10
same,Soybean plant response rating,soybean [4]; [24],60
same,"Plant response rating, Soybean",soybean [4]; [25],100
same,Kochia plant response rating,kochia [5]; [24],100
same,"Plant response rating, Kochia",kochia [5]; [25],100
same,"Plant response rating, Foxtail, Green",green foxtail [6]; [26],70
same,"Plant response rating, Foxtail, Green",green foxtail [6]; [27],30
same,Ragweed plant response rating,ragweed [7]; [24],100
same,"Plant response rating, Ragweed",ragweed [7]; [25],80
same,"Oat, Wild plant response rating","oat, wild [8]; [24]",80
same,"Plant response rating, Oat, Wild","oat, wild [8]; [25]",50
same,"Plant response rating, Barnyardgrass",barnyardgrass [9]; [26],70
same,"Plant response rating, Barnyardgrass",barnyardgrass [9]; [27],20
same,"Plant response rating, Ducksalad (Flood)",ducksalad,70
same,"Plant response rating, Ragweed",ragweed [10]; [26],90
same,"Plant response rating, Ragweed",ragweed [10]; [27],60
same,"Pigweed, Palmer plant response rating","pigweed, palmer [11]; [24]",100
same,"Plant response rating, Pigweed, Palmer","pigweed, palmer [11]; [25]",100
same,"Plant response rating, Rice (Flood)",rice,0
same,"Plant response rating, Corn",corn [12]; [26],80
same,"Plant response rating, Corn",corn [12]; [27],0
same,Corn plant response rating,corn [13]; [24],30
same,"Plant response rating, Corn",corn [13]; [25],20
same,Blackgrass plant response rating,blackgrass [14]; [24],80
same,"Plant response rating, Blackgrass",blackgrass [14]; [25],20
same,"Ryegrass, Italian plant response rating","ryegrass, Italian [15]; [24]",100
same,"Plant response rating, Ryegrass, Italian","ryegrass, Italian [15]; [25]",80
same,"Foxtail, Green plant response rating",green foxtail [16]; [24],100
same,"Plant response rating, Foxtail, Green",green foxtail [16]; [25],100
same,"Plant response rating, Oat, Wild","oat, wild [17]; [26]",20
same,"Plant response rating, Oat, Wild","oat, wild [17]; [27]",10
same,"Plant response rating, Pigweed, Palmer","pigweed, palmer [18]; [26]",100
same,"Plant response rating, Pigweed, Palmer","pigweed, palmer [18]; [27]",80
same,"Plant response rating, Wheat",wheat [19]; [26],20
same,"Plant response rating, Wheat",wheat [19]; [27],10
same,"Plant response rating, Galium",galium; [26],100
same,"Plant response rating, Galium",galium; [27],90
same,"Plant response rating, Kochia",kochia [20]; [26],90
same,"Plant response rating, Kochia",kochia [20]; [27],80
same,Wheat plant response rating,wheat [21]; [24],30
same,"Plant response rating, Wheat",wheat [21]; [25],30
same,"Plant response rating, Barnyardgrass (Flood)",barnyardgrass [22],25
same,"Plant response rating, Horseweed",horseweed; [26],60
same,"Plant response rating, Horseweed",horseweed; [27],60
same,"Plant response rating, Ryegrass, Italian","ryegrass, Italian [23]; [26]",60
same,"Plant response rating, Ryegrass, Italian","ryegrass, Italian [23]; [27]",30
COc1ccc(-n2cncn2)cc1C(=O)N1C[C@H](C)Oc2c(Cl)cccc21 [Compound 241],"Plant response rating, Barnyardgrass",barnyardgrass [1]; [28],100
same,Barnyardgrass plant response rating,barnyardgrass [1]; [29],90
same,"Plant response rating, Sedge, Umbrella (Flood)","sedge, umbrella",100
same,"Plant response rating, Soybean",soybean [2]; [30],100
same,"Plant response rating, Soybean",soybean [2]; [31],100
same,"Plant response rating, Blackgrass",blackgrass [3]; [30],90
same,"Plant response rating, Blackgrass",blackgrass [3]; [31],100
same,"Plant response rating, Soybean",soybean [4]; [28],100
same,Soybean plant response rating,soybean [4]; [29],100
same,"Plant response rating, Kochia",kochia [5]; [28],80
same,Kochia plant response rating,kochia [5]; [29],20
same,"Plant response rating, Foxtail, Green",green foxtail [6]; [30],90
same,"Plant response rating, Foxtail, Green",green foxtail [6]; [31],90
same,"Plant response rating, Ragweed",ragweed [7]; [28],10
same,Ragweed plant response rating,ragweed [7]; [29],10
same,"Plant response rating, Oat, Wild","oat, wild [8]; [28]",90
same,"Oat, Wild plant response rating","oat, wild [8]; [29]",50
same,"Plant response rating, Barnyardgrass",barnyardgrass [9]; [30],100
same,"Plant response rating, Barnyardgrass",barnyardgrass [9]; [31],100
same,"Plant response rating, Ducksalad (Flood)",ducksalad,90
same,"Plant response rating, Ragweed",ragweed [10]; [30],50
same,"Plant response rating, Ragweed",ragweed [10]; [31],90
same,"Plant response rating, Pigweed, Palmer","pigweed, palmer [11]; [28]",100
same,"Pigweed, Palmer plant response rating","pigweed, palmer [11]; [29]",100
same,"Plant response rating, Rice (Flood)",rice,15
same,"Plant response rating, Corn",corn [12]; [30],60
same,"Plant response rating, Corn",corn [12]; [31],100
same,"Plant response rating, Corn",corn [13]; [28],70
same,Corn plant response rating,corn [13]; [29],20
same,"Plant response rating, Blackgrass",blackgrass [14]; [28],70
same,Blackgrass plant response rating,blackgrass [14]; [29],50
same,"Plant response rating, Ryegrass, Italian","ryegrass, Italian [15]; [28]",90
same,"Ryegrass, Italian plant response rating","ryegrass, Italian [15]; [29]",90
same,"Plant response rating, Foxtail, Green",green foxtail [16]; [28],100
same,"Foxtail, Green plant response rating",green foxtail [16]; [29],100
same,"Plant response rating, Oat, Wild","oat, wild [17]; [30]",60
same,"Plant response rating, Oat, Wild","oat, wild [17]; [31]",90
same,"Plant response rating, Pigweed, Palmer","pigweed, palmer [18]; [30]",70
same,"Plant response rating, Pigweed, Palmer","pigweed, palmer [18]; [31]",90
same,"Plant response rating, Wheat",wheat [19]; [30],50
same,"Plant response rating, Wheat",wheat [19]; [31],90
same,"Plant response rating, Galium",galium; [30],100
same,"Plant response rating, Galium",galium; [31],100
same,"Plant response rating, Kochia",kochia [20]; [30],20
same,"Plant response rating, Kochia",kochia [20]; [31],70
same,"Plant response rating, Wheat",wheat [21]; [28],90
same,Wheat plant response rating,wheat [21]; [29],60
same,"Plant response rating, Barnyardgrass (Flood)",barnyardgrass [22],50
same,"Plant response rating, Horseweed",horseweed; [30],50
same,"Plant response rating, Horseweed",horseweed; [31],90
same,"Plant response rating, Ryegrass, Italian","ryegrass, Italian [23]; [30]",90
same,"Plant response rating, Ryegrass, Italian","ryegrass, Italian [23]; [31]",100
